Measurements from the supplement of paper PMC11208160.

Assay: recombinant UMI read abundance after kanamycin selection (control-corrected) (log10(CPM+1)); higher = more efficient recombination; extreme values may be limits of the assay; sequences stand for … in AGTGCAGAGAAAATCGGCCAGTTTTCTCTGCCTGCAGTCCGCATGCCGTGGGACCCCTTGGGTTCTAACCTGTTGCCTAGATTTATGCAGCGGACTGCCTTTCTCCCAAAGTGATAAACCGG…AGGTTGGTTTCACT; site = the 11-nt donor
Summary of the method: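 Under IPTG (0.07 mM) plus kanamycin, or without selection, Escherichia coli carrying a UMI-tagged donor and donor-binding-loop pair library and a target plasmid for the IS621 bridge recombinase were plated in two replicates. Recombinant UMIs were PCR-amplified across the donor–target junction and sequenced. Counts were converted to CPM, averaged over replicates, scaled by control-derived factors and reported as log10(CPM+1).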
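Further: IS621 bridge recombinase in Escherichia coli cells against a fixed T5 target plasmid.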

Sequence	recombinant UMI read abundance (log10)
CTCGTATCATGGACCGGTTTTCCCGGTAATCCGTATTTGTC (site CTAGTATCTGT)	0
CCCCAGCCATGGACCGGTTTTCCCGGTAATCCGTATTTGCC (site CCCCAGCCTGG)	0
TACTTTGCATGGACCGGTTTTCCCGGTAATCCGTATTTGGA (site TACTTTGCTTC)	0.0143
GTGTGGGCATGGACCGGTTTTCCCGGTAATCCGTATTTGAG (site GTGTGGGCTCT)	1.21
ACACATCCATGGACCGGTTTTCCCGGTAATCCGTATTTGAC (site AGACATCCTGT)	0
GACTGACCATGGACCGGTTTTCCCGGTAATCCGTATTTGGC (site GACTGACCTGC)	0
GCGAAAGCATGGACCGGTTTTCCCGGTAATCCGTATTTGCT (site GCGAAAGCTAG)	1.01
GGTTTGGCATGGACCGGTTTTCCCGGTAATCCGTATTTGCT (site GGTTTGGCTAG)	0
GTTTAGCCATGGACCGGTTTTCCCGGTAATCCGTATTTGGC (site GTTTAGCCTGC)	0
GGAATTGCATGGACCGGTTTTCCCGGTAATCCGTATTTGCC (site GGAATTGCTGG)	0
TGATAGCCATGGACCGGTTTTCCCGGTAATCCGTATTTGAG (site TGATAGCCTCT)	0.0234
TTTTCCCCATGGACCGGTTTTCCCGGTAATCCGTATTTGTA (site TGTTCCCCTTA)	0.0253
GGTTAGACATGGACCGGTTTTCCCGGTAATCCGTATTTGCC (site GGGTAGACTGG)	1.27
TGGCCGGCATGGACCGGTTTTCCCGGTAATCCGTATTTGGC (site TGGACGGCTGC)	0
TGAGTGGCATGGACCGGTTTTCCCGGTAATCCGTATTTGGT (site CGAGTGGCTAC)	0.605
GTCCTGCCATGGACCGGTTTTCCCGGTAATCCGTATTTGGC (site GTCCTGCCTGC)	0
GGATCGTCATGGACCGGTTTTCCCGGTAATCCGTATTTGCT (site CGATCATCTAG)	0.402
GCTTCCCCATGGACCGGTTTTCCCGGTAATCCGTATTTGAT (site GCTTTCCCTAT)	0.028
ACAAGGACATGGACCGGTTTTCCCGGTAATCCGTATTTGTT (site ACAAGGACTAA)	2.32

Sequence	recombinant UMI read abundance (log10)
GGCTACCCATGGACCGGTTTTCCCGGTAATCCGTATTTGTT (site GGCAACCCTAA)	0.00887
ACGGTTTCATGGACCGGTTTTCCCGGTAATCCGTATTTGCA (site ACGGTTTCTTG)	2.34
AATGTTTCATGGACCGGTTTTCCCGGTAATCCGTATTTGAC (site AATGTCTCTGT)	0
CTGGAAACATGGACCGGTTTTCCCGGTAATCCGTATTTGCT (site CTGGAAACTCG)	0.534
TAGCCTTCATGGACCGGTTTTCCCGGTAATCCGTATTTGAT (site TAGCCTTCTAG)	0
CTAGTCACATGGACCGGTTTTCCCGGTAATCCGTATTTGGG (site CTAGTCACTCC)	0.00791
TCCTAGCCATGGACCGGTTTTCCCGGTAATCCGTATTTGCC (site GCCTAGCCTGG)	0.221
GATTATTCATGGACCGGTTTTCCCGGTAATCCGTATTTGCT (site GATTATTCTAG)	1.96
CGGGAACCATGGACCGGTTTTCCCGGTAATCCGTATTTGAG (site CGGGAACCTCT)	0.013
GGTAGAACATGGACCGGTTTTCCCGGTAATCCGTATTTGGC (site GGTAGAACTGC)	0.973
GCCTATGCATGGACCGGTTTTCCCGGTAATCCGTATTTGTC (site GCCTATGCTGA)	1.57
GATTGGACATGGACCGGTTTTCCCGGTAATCCGTATTTGGC (site GATTGGACTGG)	0
GGGGCACCATGGACCGGTTTTCCCGGTAATCCGTATTTGCA (site GGGGCAGCTTG)	0
AGCCTAGCATGGACCGGTTTTCCCGGTAATCCGTATTTGTA (site AGCCTAGCTGA)	0
GTTGGAACATGGACCGGTTTTCCCGGTAATCCGTATTTGGC (site GTTGGAACTGC)	2.55
TCCGAGACATGGACCGGTTTTCCCGGTAATCCGTATTTGCG (site TCCGAGACTCG)	0.0319
CCTATTACATGGACCGGTTTTCCCGGTAATCCGTATTTGGC (site CCTAATACTGC)	0
GAGCTAACATGGACCGGTTTTCCCGGTAATCCGTATTTGAT (site GAGCTTACTAT)	0.00927
CGATAAACATGGACCGGTTTTCCCGGTAATCCGTATTTGCT (site CGATCATCTAG)	0

Sequence	recombinant UMI read abundance (log10)
ATGTCGGCATGGACCGGTTTTCCCGGTAATCCGTATTTGGC (site ATGTTGGCTGC)	0.0547
GTTGGAGCATGGACCGGTTTTCCCGGTAATCCGTATTTGCA (site GTTTGAGCTTG)	0.659
ATGTAGGCATGGACCGGTTTTCCCGGTAATCCGTATTTGGC (site ATCTAGGCTGC)	0.844
TAACTAGCATGGACCGGTTTTCCCGGTAATCCGTATTTGAA (site TACCTAGCTTT)	0.34
GGTTCATCATGGACCGGTTTTCCCGGTAATCCGTATTTGCT (site GGTTCATCTAG)	1.84
ACATCAACATGGACCGGTTTTCCCGGTAATCCGTATTTGTC (site ACATCAACTGA)	1.34
TGCTAAGCATGGACCGGTTTTCCCGGTAATCCGTATTTGGT (site TGCTACGCTAC)	0
TTTGTTCCATGGACCGGTTTTCCCGGTAATCCGTATTTGTG (site TTTGTTCCTCA)	0.0191
ACACCATCATGGACCGGTTTTCCCGGTAATCCGTATTTGCA (site ACAGTATCTTG)	1.21
TCGCTAGCATGGACCGGTTTTCCCGGTAATCCGTATTTGCC (site TCGCTAGCTGG)	0
TGCTAGGCATGGACCGGTTTTCCCGGTAATCCGTATTTGGT (site TCCTAGGCTAC)	0.0105
GACGAACCATGGACCGGTTTTCCCGGTAATCCGTATTTGGT (site GACAAACCTAC)	0
AGAAAGTCATGGACCGGTTTTCCCGGTAATCCGTATTTGCT (site AGAAAGGCTAG)	0
AGCATTCCATGGACCGGTTTTCCCGGTAATCCGTATTTGTC (site AGCATTCCTGA)	0
AGTAAGCCATGGACCGGTTTTCCCGGTAATCCGTATTTGCA (site AGTAAGCCTTG)	0.539
AGACTAGCATGGACCGGTTTTCCCGGTAATCCGTATTTGTT (site AGACTAGCTAA)	1.07
ATAGGGCCATGGACCGGTTTTCCCGGTAATCCGTATTTGAC (site ATACGGCCTGT)	0
GAAGGGCCATGGACCGGTTTTCCCGGTAATCCGTATTTGCA (site GAAAGGCCTTG)	0
CAGTCGACATGGACCGGTTTTCCCGGTAATCCGTATTTGAG (site CAGTCGACTCA)	0.00421
